The record followed here is patent US20260274794A1, “COMPOUNDS, COMPOSITIONS, AND METHOD OF INHIBITING TAU PROTEIN AND ALPHASYNUCLEIN AGGREGATION” (Purdue Research Foundation, priority 2023, published 2026).

“Also recorded” adds a separate entry of the source.

The target in series [1] is T1, α-synuclein (α-syn) (Homo sapiens, UniProt P37840).
T1 construct: purchased rPeptide, LLC (Watkinsville, GA)
The series is described as follows: Thioflavin T (ThT) fluorescence assay of α-syn fibril formation. The format is biochemical. The conditions noted are these: compound 3.125-100 μM, α-syn 2 μM, plateau phase.

Series [2] addresses T1, α-synuclein (α-syn). Described as above. The conditions noted are these: compound 100 μM; ThT fluorescence intensity at plateau phase, control = 100%. Type of series: biochemical. As to the method:
(§1) ThT fluorescence is routinely established assay to follow the kinetics of α-syn fibril formation with different drug candidate treatments. Compounds were first tested at a final of concentration of 100 μM and α-syn and 2N4R tau were prepared at 2 μM and 6 μM, respectively. Compounds with highest anti-fibrillary activity were tested at 3.125, 6.25, 12.5, 25, 50, and 100 μM to obtain dose-response curves.
For the α-syn ThT assay, ThT was used at a final concentration of 20 μM. α-Syn was dissolved in 20 mM Tris-HCl (pH 7.4) supplemented with 100 mM NaCl to a stock solution of 280 μM (1 mg/250 μL) prior to resuspension in ThT buffer to obtain a final concentration of 2 μM. Compounds and ThT were first added to the wells. The kinetics of fibril formation begin when the α-syn was solubilized in the ThT buffer (10 mM PBS buffer (pH 7.4), supplemented with 0.5 mM SDS and 300 mM NaCl) and added to a non-treated black 96 well microplate with a transparent flat bottom. Each well was filled with a maximum volume of 150 μL buffer with one 3 mm borosilicate bead. The background fluorescence signal consisted of ThT in buffer and 0.25% DMSO without α-syn. The excitation and emission wavelengths were set at 440 and 485 nm, respectively, with a Synergy HT multi-mode microplate reader (BioTek, Winooski, VT). Measurements were taken at 37° C. every 20 minutes over 50 hours of shaking prior to reading the plate. Samples were measured in three replicates and the experiments were repeated three times using different α-syn stock solutions. For each time point, the background fluorescence signal was subtracted. Arbitrary units of fluorescence were calculated from the mean values normalized against the maximum value in each completed assay. Arbitrarily, the maximum value (100%) for the fluorescence intensity was established for α-syn.
Compounds were tested at 100 μM with α-syn at 6 μM, resulting in a molar ratio of approximately 1:16 (protein:compound). The plateau phase of sigmoidal kinetics is of particular interest because it is the phase in which mature fibrils form and where aggregation and disaggregation are at equilibrium with each other; therefore, the fluorescence intensity between multiple compounds at the plateau phase can be compared to identify the compounds with the most promising anti-aggregation activity (Table 1, column α-syn ThT %). […] Compound 17 was the best representative of the 5-aminoindole series and moved to the tier-2 assays, even though the resulting ThT percentage of fluorescence intensity was 10% higher than the cut off. These compounds were then tested on tau 2N4R ThT fluorescence assays.

Series [3] is described as follows: Kinetics of solubility in ThT buffer. The format is physicochemical. The conditions noted are these: ThT buffer: 1×PBS pH 7.4, 300 mM NaCl, 0.5 mM SDS. The procedure:
Kinetics of solubility analysis was performed at the MSU Medicinal Chemistry Core facility.

The target in series [4] is T2, tau isoform 2N4R (Homo sapiens, UniProt P10636).
T2 construct: made in house; host or cells: E. coli BL21 (DE3), vector pRK172
T2 sequence (P10636 1-441 isoform P10636-8): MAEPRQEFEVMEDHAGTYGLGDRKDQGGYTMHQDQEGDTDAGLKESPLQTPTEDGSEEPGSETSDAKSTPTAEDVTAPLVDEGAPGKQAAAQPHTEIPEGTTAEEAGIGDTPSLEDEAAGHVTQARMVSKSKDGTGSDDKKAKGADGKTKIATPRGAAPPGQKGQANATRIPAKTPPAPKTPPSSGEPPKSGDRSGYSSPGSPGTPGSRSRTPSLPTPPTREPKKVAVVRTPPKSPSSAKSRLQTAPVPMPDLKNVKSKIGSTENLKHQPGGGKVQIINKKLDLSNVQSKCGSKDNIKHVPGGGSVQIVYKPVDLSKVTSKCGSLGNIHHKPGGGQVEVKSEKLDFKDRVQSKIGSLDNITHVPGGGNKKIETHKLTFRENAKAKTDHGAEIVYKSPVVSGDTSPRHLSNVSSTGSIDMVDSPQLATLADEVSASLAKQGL
The series is described as follows: PICUP assay of tau isoform 2N4R oligomerization. Type of series: biochemical. The conditions noted are these: compound 50 μM. The procedure: (§2) To force the oligomerization by cross-linking, α-syn (from Rpeptide, LLC) and tau isoform 2N4R were diluted in 10 mM phosphate buffer (pH 7.4) to reach a final concentration of 10 μM [27]. Different compounds were added to the protein solution at a final concentration of 50 μM, resulting in a molar ratio of 1:5. To confirm the gradual effect of the compounds on the inhibition of α-syn oligomerization, compounds were tested at final concentration of 3.125, 6.25, 12.5, 25, and 50 μM. The controls consisted of samples without light exposition, without Ru(bpy), and without compound (i.e., 0.125% DMSO). The cross-linking reaction was initiated by the addition of 2 μL of Ru(bpy) (300 μM final concentration) and 2 μL ammonium persulfate (6 mM final concentration). Samples were irradiated immediately. Light exposition was of 1 second duration for ca-syn and 3 second duration for tau isoform 2N4R, with a 53 W (120 V) incandescent lamp installed in a homemade dark-box. Each tube contained a final volume of 20 μL. After irradiation, 8.3 μL. of Lammeli loading buffer containing 15% β-mercaptoethanol was immediately added to the solution, followed by incubation at 95° C. for 10 minutes. The cross-linked samples were separated on a 16% SDS-Page gel and visualized by Coomassie blue staining.
(§3) One end point used to verify the propensity of misfolded protein in the drug discovery field is the inhibition of oligomer formation. The photo-induced cross-linking of unmodified proteins (PICUP) assay was used to investigate α-syn (60 μM) and tau isoform 2N4R (6 μM) oligomerization in the presence of eight amide compounds (2, 4, 5, 6, 7, 8, 13, and 17 at 50 μM, i.e., ~molar ratio 1:8 for tau). After being subjected to short light exposure, α-syn and tau were cross-linked and Coomassie-stained resolved as a higher molecular weight compared to control (0.125% DMSO). […] Compound 13 was used as a negative control for the α-syn PICUP.
(§4) PICUP assays were performed with different concentrations (50 μM, 25 μM, 12.5 μM, 6.25 μM, 3.125 μM; control=0.125% DMSO) for each lead compound.

A further series deals with α-syn (Homo sapiens, UniProt P37840). As to the kind of experiment: PICUP assay of α-syn oligomerization. Type of series: biochemical. The conditions noted are these: for α-syn oligomerization (PICUP crosslinking): compound 50 μM; for α-syn oligomer formation, PICUP dose-response: compound 3.125-50 μM. Also on record: purchased rPeptide, LLC (Watkinsville, GA). The procedure: as §2, §3, §4

The target of series [5] is T2, tau isoform 2N4R. The series is described as follows: ThT fluorescence assay of tau isoform 2N4R fibril formation. The format is biochemical. The conditions noted are these: for effect on tau isoform 2N4R fibril formation (ThT): compound 100 μM, tau 2N4R 6 μM; for tau isoform 2N4R fibrillization, ThT dose-response: compound 3.125-100 μM, tau 6 μM, plateau phase. As to the method: as §1
Concerning the non-phosphorylated tau (isoform 2N4R) kinetics of fibril formation, ThT was performed with the tau protein solution was diluted to a final concentration of 6 μM in PBS (pH 7.4) supplemented with 1.5 μM heparin, 20 μM ThT, 2.5 mM DTT, and 100 μM compound. Aliquots of the diluted protein solution (100 μL each) were pipetted into the wells of a 96-well plate, and a Teflon ball was added to each well. The plate was incubated at 37° C. with constant shaking at 1,000 rpm in a Tecan Stark plate reader. ThT fluorescence was measured every 15 min with excitation and emission wavelengths of 440 nm and 480 nm, and the data were plotted using GraphPad Prism.
Various structural analogs were first tested at a final concentration of 100 μM in the presence of tau 2N4R at 6 μM. Compounds 2, 4-8, and 17 were pre-selected with α-syn ThT assay prior to evaluation on the tau isoform 2N4R.

Series [6] in a line: Mouse microsomal stability. Type of series: in vitro ADME.

On to `O=C(Nc1cccc2[nH]ccc12)c1ccccc1` [Compound 2, N-(1H-indol-4-yl)benzamide], for which, on α-synuclein (α-syn) [1], the “α-syn fibrillization, ThT dose-response” value is given as “reduction in protein fibrillization when subjected to higher concentrations”. At α-synuclein (α-syn) [2], the remaining activity (in general, what remains of the control signal, in per cent) at 100 µM was no more than 30%. For the same molecule, the “Measured Solubility” value in series [3] was greater than 300 µM. Also, on tau isoform 2N4R [4], the “tau isoform 2N4R oligomerization (PICUP crosslinking)” value was “effectively prevented this crosslinking; also recorded: prevented tau 2N4R oligomer formation”. For the same molecule, at α-syn, the “α-syn oligomerization (PICUP crosslinking)” value is “effectively prevented this crosslinking” and the “α-syn oligomer formation, PICUP dose-response” value is on record as “prevented α-syn oligomer formation in a dose-dependent manner”. Moreover, at tau isoform 2N4R [5], the “effect on tau isoform 2N4R fibril formation (ThT)” value (shortened to “effect”) is listed as “weaker anti-fibrilization effect” and the “tau isoform 2N4R fibrillization, ThT dose-response” value is reported as “reduction in protein fibrillization when subjected to higher concentrations”.
As to `O=C(Nc1cccc2[nH]ccc12)c1ccc(F)cc1` [Compound 8, 4-fluoro-N-(1H-indol-4-yl)benzamide], at α-synuclein (α-syn) [1], the “α-syn fibrillization, ThT dose-response” value is on record as “reduction in protein fibrillization when subjected to higher concentrations”. The remaining activity at 100 µM at α-synuclein (α-syn) [2] is no more than 30%. The molecule further yielded a Mouse microsomal stability in series [6] of 70%. In addition, in series [3], the “Measured Solubility” value was greater than 300 µM. In addition, the “tau isoform 2N4R oligomerization (PICUP crosslinking)” value at tau isoform 2N4R [4] was “effectively prevented this crosslinking; also recorded: prevented tau 2N4R oligomer formation”. For the same molecule, on α-syn, the “α-syn oligomerization (PICUP crosslinking)” value was “effectively prevented this crosslinking” and the “α-syn oligomer formation, PICUP dose-response” value is recorded as “prevented α-syn oligomer formation in a dose-dependent manner”. Moreover, at tau isoform 2N4R [5], the “effect” value is listed as “good inhibitory effect” and the “tau isoform 2N4R fibrillization, ThT dose-response” value is listed as “reduction in protein fibrillization when subjected to higher concentrations”.
With `O=C(Nc1ccc2[nH]ccc2c1)c1ccccc1Cl` [Compound 13, 2-chloro-N-(1H-indol-5-yl)benzamide], the remaining activity at 100 µM at α-synuclein (α-syn) [2] turned out to be 73.7 ± 5.6%. Also, the “Measured Solubility” value in series [3] is greater than 300 µM. Besides, the “effect” value on tau isoform 2N4R [5] is given as “increased the fluorescence intensity”.
